Measurements: publication PMC9528096, “A phase Ib study of camrelizumab in combination with apatinib and fuzuloparib in patients with recurrent or metastatic triple-negative breast cancer” (BMC Medicine, 2022)

Assay: clinical
Set-up: species or system human
Settings: in vivo; for Tmax: human
Protocol: Adverse events were monitored throughout the study treatment from informed consent until 90 days after the last camrelizumab dose or 30 days after the last apatinib or fuzuloparib dose, whichever occurred later, and were graded according to the National Cancer Institute Common Terminology Criteria for Adverse Events version 5.0. Radiographic assessment was performed by computed tomography (CT) or magnetic resonance imaging (MRI) according to RECIST version 1.1 at baseline and every two cycles. Complete or partial responses were confirmed 4 weeks later. Blood samples for pharmacokinetic analysis of apatinib and fuzuloparib were collected in all patients enrolled in the dose-finding part and in six to eight patients enrolled in the dose-expansion part. To evaluate the pharmacokinetic data of single-agent apatinib, patients intended for pharmacokinetic analysis were given apatinib alone 3 days before combination treatment initiation. Blood samples were collected 30 min pre-dose, 30 min, 1 h, 2 h, 3 h, 4 h, 8 h, 12 h, and 24 h post-dose on day − 3 of cycle 0 and day 1 of cycle 1.
The primary endpoint was DLT in cycle 1.
Safety and antitumor activity analyses were performed in all patients who received at least one dose of the study treatment. Continuously distributed data were summarized as mean (standard deviation) or median (range). Categorical data were summarized by the number and percentage of patients in each category. Adverse events were summarized descriptively. Two-sided 95% confidence intervals (CIs) for ORR and DCR were calculated using the Clopper-Pearson method. The PFS, DOR, and 12-month OS rate and their corresponding 95% CIs were estimated using the Kaplan–Meier method. Analyses of safety and antitumor activity were performed with SAS version 9.4. Pharmacokinetic parameters were descriptively summarized with non-compartmental analysis using WinNonlin (version 8.2).

Compound: N#CC1(c2ccc(NC(=O)c3cccnc3NCc3ccncc3)cc2)CCCC1 [Apatinib, apatinib]
- Tmax: 2 h
- Apatinib exposure before and after co-administration with fuzuloparib: comparable

Compound: O=C(c1cc(Cc2n[nH]c(=O)c3ccccc23)ccc1F)N1CCn2nc(C(F)(F)F)nc2C1 [Fuzuloparib, fuzuloparib]
- Tmax: 3 h
